system: anti-drug mouse monoclonal antibodies; assay: Biochip competitive immunoassay for prohibited substances in urine; format: binding; conditions: competitive immunoassay on chip

Compound | Cutoff value (the 50% inhibitory concentration)
C[C@]12CC[C@H]3[C@@H](CCC4=CC(=O)CC[C@@]43C)[C@@H]1CC[C@@H]2O [Testosterone] | 0.6 µg/L
C[C@H]1O[C@@H](O[C@H]2[C@@H](O)C[C@H](O[C@H]3[C@@H](O)C[C@H](O[C@H]4CC[C@@]5(C)[C@H](CC[C@@H]6[C@@H]5C[C@@H](O)[C@]5(C)[C@@H](C7=CC(=O)OC7)CC[C@]65O)C4)O[C@@H]3C)O[C@@H]2C)C[C@H](O)[C@@H]1O [Digoxin, digoxin] | 2.8 µg/L
CN[C@@H](C)Cc1ccccc1 [Methamphetamine] | 4.0 µg/L
gentamicin | 2.5 µg/L
CC(N)Cc1ccccc1 (stereo not shown) [Amphetamine, amphetamine] | 5.2 µg/L

system: anti-morphine antibodies; assay: Qualitative screening of athlete urines on chip (morphine); format: binding, mouse; conditions: athlete urine samples containing the substance

Compound | Cross-reactivity with the anti-morphine antibodies
CCOC(=O)C1(c2ccccc2)CCN(C)CC1 [pethidine] | Cross-reactivity with the anti-morphine antibodies
COc1ccc2c3c1O[C@H]1[C@@H](O)CC[C@H]4[C@@H](C2)N(C)CC[C@@]341 [dihydrocodeine] | Cross-reactivity with the anti-morphine antibodies
